One experiment has as its target MtbIMPDH (Mycobacterium tuberculosis, UniProt P9WKI7). Briefly: MtbIMPDH inhibition. Format: biochemical.
Experiment [1] has as its target T1, CpIMPDH (Cryptosporidium parvum, UniProt Q8T6T2).
T1 sequence (Q8T6T2 1-400): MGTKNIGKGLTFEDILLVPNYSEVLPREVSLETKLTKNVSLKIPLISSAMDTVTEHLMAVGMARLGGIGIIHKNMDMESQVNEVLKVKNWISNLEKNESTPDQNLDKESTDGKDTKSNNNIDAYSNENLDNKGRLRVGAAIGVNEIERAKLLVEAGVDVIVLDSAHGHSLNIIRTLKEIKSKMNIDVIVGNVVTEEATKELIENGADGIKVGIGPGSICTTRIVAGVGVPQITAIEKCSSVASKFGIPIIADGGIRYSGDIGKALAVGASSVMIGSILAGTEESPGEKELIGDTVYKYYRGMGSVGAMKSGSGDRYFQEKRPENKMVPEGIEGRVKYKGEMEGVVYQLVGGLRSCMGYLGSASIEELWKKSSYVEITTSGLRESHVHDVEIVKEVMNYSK
As to the kind of experiment: biochemical. Format: biochemical. As to conditions: for CpIMPDH inhibition, result in words: relative to parent anilide.

For a further experiment, the target named is HsIMPDH2 (Homo sapiens, UniProt P12268). As to the kind of experiment: HsIMPDH2 enzyme inhibition. Format: biochemical.
Experiment [2] concerns the target T1, CpIMPDH. As to conditions: read-out: CpIMPDH Ki; cited from earlier work.
Another experiment has as its target HsIMPDH1. As to conditions: read-out: HsIMPDH1 Ki; cited from earlier work.
Where [3] appears, read: ratio of Ki,app of the two enantiomers.

We go through twelve molecules from publication PMC9511823 (Bioorganic & medicinal chemistry letters, 2020).

SMILES strings stand for the structures. pKi: −log10 of the molar value. Where two headings read alike, the source gives them in different places.

MtbIMPDH, sequence (P9WKI7 whole entry, looked up): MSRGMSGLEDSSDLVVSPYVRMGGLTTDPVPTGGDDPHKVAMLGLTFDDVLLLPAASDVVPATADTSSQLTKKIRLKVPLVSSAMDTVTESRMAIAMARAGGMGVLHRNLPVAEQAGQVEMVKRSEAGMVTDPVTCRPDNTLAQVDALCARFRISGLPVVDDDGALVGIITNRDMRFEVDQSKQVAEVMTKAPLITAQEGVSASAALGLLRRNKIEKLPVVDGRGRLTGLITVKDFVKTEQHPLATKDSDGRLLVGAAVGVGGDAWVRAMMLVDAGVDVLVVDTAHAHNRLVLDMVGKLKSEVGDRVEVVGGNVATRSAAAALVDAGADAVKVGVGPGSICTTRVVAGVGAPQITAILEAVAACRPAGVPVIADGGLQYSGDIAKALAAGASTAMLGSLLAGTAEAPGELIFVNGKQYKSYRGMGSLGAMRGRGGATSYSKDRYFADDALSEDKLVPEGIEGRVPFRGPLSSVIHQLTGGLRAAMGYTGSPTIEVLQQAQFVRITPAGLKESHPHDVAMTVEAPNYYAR

As usually defined, the pKi is −log10 of the Ki, conventionally taken in molar units. On to `COc1c(C)c2c(c(O)c1C/C=C(\C)CCC(=O)Nc1ccc(Cl)c(C(F)(F)F)c1)C(=O)OC2` [Compound 10], for which, at MtbIMPDH, the pKi is 7.22.

In the case of `COc1c(C)c2c(c(O)c1C/C=C(\C)CCC(=O)Nc1cccc(Cl)c1Cl)C(=O)OC2` [Compound 11], the “CpIMPDH inhibition, result in words” value at CpIMPDH [1] is given as “loss of CpIMPDH inhibitory activity”.

In turn, `COc1c(C)c2c(c(O)c1C/C=C(\C)CCC(=O)Nc1ccc(C(F)(F)F)cc1)C(=O)OC2` [Compound 14] had a pKi at CpIMPDH [1] of 6.82.

In the case of `COc1c(C)c2c(c(O)c1CC(=O)Nc1ccc(Cl)cc1)C(=O)OC2` [Compound 44], the results for the pKi on HsIMPDH2 and at CpIMPDH [1] were 6.10 and 5.55, respectively.

`COc1c(C)c2c(c(O)c1C[C@H]1C[C@]1(C)CCC(=O)Nc1ccc(Cl)c(C(F)(F)F)c1)C(=O)OC2` [Compound 31a]: the pKi at HsIMPDH2 was 5.85; at CpIMPDH [1], 6.24.

`COc1c(C)c2c(c(O)c1C/C=C(\C)CCC(=O)Nc1ccc(F)cc1)C(=O)OC2` [Compound 13] gave a pKi at CpIMPDH [1] of 6.74.

On to `COc1c(C)c2c(c(O)c1CCOCC(=O)Nc1ccc(Cl)cc1)C(=O)OC2` [Compound 38], for which the pKi on HsIMPDH2 was 6.06; at CpIMPDH [1] it was 6.39.

For the molecule `COc1c(C)c2c(c(O)c1CCCC(=O)Nc1ccc(Cl)cc1)C(=O)OC2` [Compound 42b], the results for the pKi on HsIMPDH2 and on CpIMPDH [1] were 6.54 and 6.35, respectively.

Regarding `COc1c(C)c2c(c(O)c1C/C=C(\C)CCC(=O)N(C)c1ccc(Cl)cc1)C(=O)OC2` [Compound 16], at CpIMPDH [1], the “CpIMPDH inhibition, result in words” value is “loss of activity”.

In the case of `COc1c(C)c2c(c(O)c1C/C=C/C(=O)Nc1ccc(Cl)cc1)C(=O)OC2` [Compound 42a], the figures for the pKi on HsIMPDH2 and at CpIMPDH [1] were 6.26 and 6.32, respectively.

For the molecule `COc1c(C)c2c(c(O)c1C/C=C(\C)CCC(=O)O)C(=O)OC2` [MPA, Mycophenolic acid], the pKi is 5.03 on CpIMPDH [2] and 7.48 on HsIMPDH1.

For the molecule `COc1c(C)c2c(c(O)c1C[C@@H]1C[C@@]1(C)CCC(=O)Nc1ccc(Cl)c(C(F)(F)F)c1)C(=O)OC2` [Compound 31b], the negative logarithm of the Ki (pKi) on HsIMPDH2 is 6.34; at CpIMPDH [1] it was 7.18. Also, the “eudysmic ratio of 31b and 31a for HsIMPDH inhibition” value on HsIMPDH2 (setting [3]) stood at 3.1. Moreover, the “eudysmic ratio of 31b and 31a for CpIMPDH inhibition” value at CpIMPDH [1] (setting [3]) was 8.6.
